According to patent US12319695B2, “Sulfonamide derivative with fused pyrimidine skeleton, having epidermal growth factor receptor mutation inhibitory effect” (HANMI PHARM. CO., LTD., priority 2018, dated 2025):

system: Ba/F3 EGFR del19/T790M/C797S cells; assay: Ba/F3 EGFR del19/T790M/C797S cell growth inhibition test (CellTiter-Glo, 72 hours); type: cell-based; details: Ba/F3 cell line overexpressing EGFR del19/T790M/C797S, 72 hours, CellTiter-Glo; read-out: Ba/F3 EGFR del19/T790M/C797S cells, GI50;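 further: compounds tested in tenfold steps from 10 µM down to 0.1 nM, with luminescence read on a microplate reader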
Method: Specifically, the cell line stored in a liquid nitrogen tank was taken out, rapidly dissolved at 37° C., and thereafter centrifuged to remove the cryopreservation medium. The recovered cell pellets were well mixed in a culture medium, put into a culture flask, and passaged under conditions of 37° C. and 5% carbon dioxide to stabilize the cells to the logarithmic growth phase. Thereafter, cells were taken from the flask, centrifuged to remove the culture medium, washed with Dulbecco's phosphate buffered saline (DPBS), and then centrifuged again to remove DPBS, and then diluted with a culture medium to have 1×10^5 cells/ml. The diluted cells were dispensed into a 96-well plate at 100 μl per well. […] The DMSO solution containing each compound was diluted with a culture medium to a concentration of 30 μM, and then tenfold serial dilution was used to prepare a solution diluted upto 0.3 nM (in order to reach a final DMSO concentration of 1% or less).
50 μl of a test solution of each compound was added each time to the 96-well plate in which the cells were dispensed, thus reaching a final concentration of 10 μM to 0.1 nM in 150 μl per well. The cells treated with the test solution were cultured under conditions of 37° C. and 5% carbon dioxide for 72 hours. After the 96-well plate in which the cells were cultured was acclimated to room temperature for 30 minutes, CellTiter-Glo® Luminescent Cell Assay Reagent (CTG, Promega) was dispensed at 50 μl per well. After stabilizing luminescence signals for 10 minutes, the luminescence intensity was measured with a microplate reader.
The GI50 value of each compound was calculated using nonlinear regression of GraphPad Prism; log[inhibitor] vs. normalized response analysis.

| GI50 [µM] | SMILES |
| --- | --- |
| 0.371 | CN(c1ccccc1Nc1nc(Nc2ccc(N3CCCCC3)c(F)c2)nc2[nH]ccc12)S(C)(=O)=O [Example 22, N-(2-((2-((4-(piperidin-1-yl)-3-fluorophenyl)amino)-7H-pyrrolo[2,3-d]pyrimidine-4-yl)amino)phenyl)-N-methylmethanesulfonamide] |
| 0.064 | CN1CCN(c2ccc(Nc3nc(Nc4ccccc4N(C4CC4)S(C)(=O)=O)c4cc[nH]c4n3)cc2F)CC1 [Example 45, N-cyclopropyl-N-(2-((2-((3-fluoro-4-(4-methylpiperazin-1-yl)phenyl)amino)-7H-pyrrolo[2,3-d]pyrimidine-4-yl)amino)phenyl)methanesulfonamide] |
| 0.063 | CN1CCN(c2ccc(Nc3nc(Nc4ccccc4N(C)S(C)(=O)=O)c4nc[nH]c4n3)cc2F)CC1 [Example 66, N-(2-((2-((3-fluoro-4-(4-methylpiperazin-1-yl)phenyl)amino)-9H-purine-6-yl)amino)phenyl)-N-methylmethanesulfonamide] |
| 0.067 | CN(c1ccccc1Nc1nc(Nc2ccc(N3CCC4(CCOCC4)CC3)c(F)c2)nc2[nH]ccc12)S(C)(=O)=O [Example 39, N-(2-((2-((3-fluoro-4-(3-oxa-9-diazaspiro[5.5]undecan-9-yl)phenyl)amino)-7H-pyrrolo[2,3-d]pyrimidine-4-yl)amino)phenyl)-N-methylmethanesulfonamide] |
| 0.119 | CCN1CCN(c2ccc(Nc3nc(Nc4ccccc4N(CC)S(=O)(=O)CC)c4cc[nH]c4n3)cc2F)CC1 [Example 52] |
| 0.037 | CN1CCC(c2ccc(Nc3nc(Nc4ccccc4N(C)S(C)(=O)=O)c4cc[nH]c4n3)cc2F)CC1 [Example 20, N-(2-((2-((3-fluoro-4-(1-methylpiperidin-4-yl)phenyl)amino)-7H-pyrrolo[2,3-d]pyrimidine-4-yl)amino)phenyl)-N-methylmethanesulfonamide] |
| 0.006 | CN1CC2(CCN(c3ccc(Nc4nc(Nc5ccccc5N(C)S(C)(=O)=O)c5cc[nH]c5n4)cc3F)CC2)C1 [Example 34, N-(2-((2-((3-fluoro-4-(2-methyl-2,7-diazaspiro[3.5]nonan-7-yl)phenyl)amino)-7H-pyrrolo[2,3-d]pyrimidine-4-yl)amino)phenyl)-N-methylmethanesulfonamide] |
| 0.046 | CN1CCN(c2ccc(Nc3nc(Nc4ccccc4N(C)S(C)(=O)=O)c4c(C#N)c[nH]c4n3)cc2F)CC1 [Example 61, N-(2-((5-cyano-2-((3-fluoro-4-(4-methylpiperazin-1-yl)phenyl)amino)-7H-pyrrolo[2,3-d]pyrimidine-4-yl)amino)phenyl)-N-methylmethanesulfonamide] |
| 0.041 | CN1CCN(c2ccc(Nc3nc(Nc4ccccc4N(C)S(C)(=O)=O)c4c(Cl)c[nH]c4n3)cn2)CC1 [Example 59, N-(2-((5-chloro-2-((6-(4-methylpiperazin-1-yl)pyridin-3-yl)amino)-7H-pyrrolo[2,3-d]pyrimidine-4-yl)amino)phenyl)-N-methylmethanesulfonamide] |
| 0.047 | CN1CCC(Nc2ccc(Nc3nc(Nc4ccccc4N(C)S(C)(=O)=O)c4cc[nH]c4n3)cc2F)CC1 [Example 24, N-(2-((2-((3-fluoro-4-((1-methylpiperidin-4-yl)amino)phenyl)amino)-7H-pyrrolo[2,3-d]pyrimidine-4-yl)amino)phenyl)-N-methylmethanesulfonamide] |
| 0.254 | CN1CCN(c2ccc(Nc3nc(Nc4ccccc4N(C)S(C)(=O)=O)c4cn[nH]c4n3)cc2F)CC1 [Example 67, N-(2-((6-((3-fluoro-4-(4-methylpiperazin-1-yl)phenyl)amino)-1H-pyrazolo[3,4-d]pyrimidine-4-yl)amino)phenyl)-N-methylmethanesulfonamide] |
| 0.01 | CN1CCC2(CC1)CCN(c1ccc(Nc3nc(Nc4ccccc4N(C)S(C)(=O)=O)c4cc[nH]c4n3)cc1F)CC2 [Example 31, N-(2-((2-((3-fluoro-4-(9-methyl-3,9-diazaspiro[5.5]undecan-3-yl)phenyl)amino)-7H-pyrrolo[2,3-d]pyrimidine-4-yl)amino)phenyl)-N-methylmethanesulfonamide] |
| 0.026 | CCN1CCN(c2ccc(Nc3nc(Nc4ccccc4N(CC)S(C)(=O)=O)c4cc[nH]c4n3)cc2F)CC1 [Example 50, N-ethyl-N-(2-((2-((4-(4-ethylpiperazin-1-yl)-3-fluorophenyl)amino)-7H-pyrrolo[2,3-d]pyrimidine-4-yl)amino)phenyl)methanesulfonamide] |
| 0.0079 | CN1CCN(c2ccc(Nc3nc(Nc4ccccc4N(C)S(C)(=O)=O)c4c(Cl)c[nH]c4n3)cc2F)CC1 [Example 57, N-(2-((5-chloro-2-((3-fluoro-4-(4-methylpiperazin-1-yl)phenyl)amino)-7H-pyrrolo[2,3-d]pyrimidine-4-yl)amino)phenyl)-N-methylmethanesulfonamide] |
| 0.025 | CN1CCC2(C1)CN(c1ccc(Nc3nc(Nc4ccccc4N(C)S(C)(=O)=O)c4cc[nH]c4n3)cc1F)C2 [Example 38, N-(2-((2-((3-fluoro-4-(6-methyl-2,6-diazaspiro[3.4]octan-2-yl)phenyl)amino)-7H-pyrrolo[2,3-d]pyrimidine-4-yl)amino)phenyl)-N-methylmethanesulfonamide] |
| 0.046 | CN1CCN(c2ccc(Nc3nc(Nc4ccccc4N(C)S(C)(=O)=O)c4c(F)c[nH]c4n3)cc2F)CC1 [Example 62, N-(2-((5-fluoro-2-((3-fluoro-4-(4-methylpiperazin-1-yl)phenyl)amino)-7H-pyrrolo[2,3-d]pyrimidine-4-yl)amino)phenyl)-N-methylmethanesulfonamide] |
| 0.112 | CN(c1ccccc1Nc1nc(Nc2ccc(N3CCN(C4COC4)CC3)c(F)c2)nc2[nH]ccc12)S(C)(=O)=O [Example 19] |
| 0.076 | CN(c1ccccc1Nc1nc(Nc2ccc(N3CCNCC3)c(F)c2)nc2[nH]ccc12)S(C)(=O)=O [Example 23, N-(2-((2-((3-fluoro-4-(piperazin-1-yl)phenyl)amino)-7H-pyrrolo[2,3-d]pyrimidine-4-yl)amino)phenyl)-N-methylmethanesulfonamide] |
| 0.157 | CN1CCN(c2ccc(Nc3nc(Nc4ccccc4N(C)S(C)(=O)=O)c4cc[nH]c4n3)c(F)c2)CC1 [Example 3, N-(2-((2-((2-fluoro-4-(4-methylpiperazin-1-yl)phenyl)amino)-7H-pyrrolo[2,3-d]pyrimidine-4-yl)amino)phenyl)-N-methylmethanesulfonamide] |
| 0.007 | CN(c1ccccc1Nc1nc(Nc2ccc(N3CCN(CCO)CC3)c(F)c2F)nc2[nH]ccc12)S(C)(=O)=O [Example 28, N-(2-((2-((2,3-difluoro-4-(4-(2-hydroxyethyl)piperazin-1-yl)phenyl)amino)-7H-pyrrolo[2,3-d]pyrimidine-4-yl)amino)phenyl)-N-methylmethanesulfonamide] |
| 0.064 | CCN1CCN(c2ccc(Nc3nc(Nc4ccccc4N(C)S(C)(=O)=O)c4c(F)c[nH]c4n3)cc2F)CC1 [Example 63, N-(2-((2-((4-(4-ethylpiperazin-1-yl)-3-fluorophenyl)amino)-5-fluoro-7H-pyrrolo[2,3-d]pyrimidine-4-yl)amino)phenyl)-N-methylmethanesulfonamide] |
| 0.031 | CN1CCC2(CCN(c3ccc(Nc4nc(Nc5ccccc5N(C)S(C)(=O)=O)c5cc[nH]c5n4)cc3F)CC2)C1 [Example 33, N-(2-((2-((3-fluoro-4-(2-methyl-2,8-diazaspiro[4.5]decan-8-yl)phenyl)amino)-7H-pyrrolo[2,3-d]pyrimidine-4-yl)amino)phenyl)-N-methylmethanesulfonamide] |
